The results in this text go back to ChEMBL document CHEMBL1130861, “Synthesis and proteinase inhibitory properties of diphenyl phosphonate analogues of aspartic and glutamic acids” (1998).

Experiment [1] has as its target Granzyme B (Homo sapiens) (UniProt P10144). The experiment can be described thus: Apparent second-order rate constant was determined by the inhibition of Granzyme B with the compound at the concentration 150 mM; ki/Ki(1/M*s), Not inhibited.
Experiment [2] deals with Staphylococcus aureus. As to the kind of experiment: Apparent second-order rate constant was determined by the inactivation of Staphylococcus aureus V8 proteinase with the compound at the concentration 100 mM(pH 7.4); ki/Ki(1/M*s). It counts as functional.

Structures are written as SMILES.

Granzyme B (Homo sapiens), sequence (P10144 whole entry): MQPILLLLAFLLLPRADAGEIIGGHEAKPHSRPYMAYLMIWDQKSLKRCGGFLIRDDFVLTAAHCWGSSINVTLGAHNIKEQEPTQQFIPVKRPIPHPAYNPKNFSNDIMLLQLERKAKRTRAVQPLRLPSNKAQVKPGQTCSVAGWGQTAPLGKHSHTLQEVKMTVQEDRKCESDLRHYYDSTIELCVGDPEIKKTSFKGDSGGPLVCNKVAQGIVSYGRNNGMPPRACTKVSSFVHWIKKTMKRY

With `CC(=O)N[C@H](CC(=O)O)P(=O)(Oc1ccccc1)Oc1ccccc1`, the Activity entry in experiment [1] is “No inhibition”; in experiment [2], 5.

As for `CC(=O)N[C@H](CCC(=O)O)P(=O)(Oc1ccccc1)Oc1ccccc1`, the Activity entry in experiment [1] was “No inhibition”; in experiment [2], 5.3.
